Laboratory results reported in patent US5877183A, “Treatment of lipid and glucose metabolism disorders with dopamine and serotonin agonists” (Ergo Research Corporation, priority 1997, dated 1999).

Key:
[1] = two-week treatment of C57BL/6 ob/ob mice (body weight, fat and lean body mass, food consumption, blood glucose, serum free fatty acids); assay type: in vivo, C57BL/6 ob/ob mice (lacking a functional leptin protein); details: two weeks
Description: Different groups (8 mice per group) of 4-8 week old C57BL/6 ob/ob mice (lacking a functional leptin protein) were treated with:
1) vehicle at 1 and 11 hours after light onset (HALO);
2) Buspirone ("Busp"; a 5HT1A agonist) (3 mg/kg) at 11 HALO;
3) DOI (a 5HT2 agonist) (8 mg/kg) at 11 HALO;
4) RU24969 ("RU") (5HT1B agonist) (3 mg/kg) at 11 HALO;
5) bromocriptine ("BC") (12 mg/kg BW) at 1 HALO;
6) BC (12 mg/kg) at 1 HALO plus Buspirone (3 mg/kg) at 11 HALO;
7) BC (12 mg/kg) at 1 HALO plus DOI (8 mg/kg) at 11 HALO;
8) BC (12 mg/kg) at 1 HALO plus RU (3 mg/kg) at 11 HALO;
9) SKF38393 ("SKF") (D1 agonist) (20mg/kg BW) at 1 HALO; and
10) SKF(20 mg/kg) at 1 HALO plus RU (3 mg/kg) at 11 HALO for two weeks. Animals were held on 12-hour daily photoperiods and allowed to feed ad libitum. Food consumption was monitored daily for 3 days before the initiation of treatment throughout the 14-day treatment period. Animals were sacrificed between 1 and 3 HALO on the day following the final treatment and plasma was collected for the analyses of insulin, glucose, and lipids while the carcasses were solubilized in ethanolic KOH and analyzed for protein and lipid content. Blood glucose was measured with an Accu-Chek Advantage glucose meter (Boehringer). Serum insulin was measured with a radioimmunoassay kit (Linco Research) using rat insulin standards. Total triglycerides and free fatty acids were measured with kits from Sigma Diagnostics and Wako Chemicals, respectively. Body weight gain or loss as a result of treatment is depicted in FIG. 1. Fat body mass is depicted in FIG. 2.

[2] = timed administration; cited from earlier work
[3] = cited from earlier work
[4] = in vivo; cited from earlier work
[5] = cited from earlier work; remark: listed apart in the source

Structure (SMILES) | body fat stores / fat body mass (effect in words) [1] | body weight gain (effect in words) [1] | food intake / food consumption (effect in words) [1] | also measured
COc1cc(CC(C)N)c(OC)cc1I (stereo not drawn) [DOI] | ineffective | ineffective | ineffective | –
O=C1CC2(CCCC2)CC(=O)N1CCCCN1CCN(c2ncccn2)CC1 [Buspirone] | ineffective | ineffective | ineffective | –
CC(C)C[C@H]1C(=O)N2CCC[C@H]2[C@]2(O)O[C@](NC(=O)[C@@H]3C=C4c5cccc6[nH]c(Br)c(c56)C[C@H]4N(C)C3)(C(C)C)C(=O)N12 [Bromocriptine, 2-bromo-alpha-ergocriptine] | ineffective | ineffective | ineffective | body fat stores (effect in words) [2]: reduce body fat stores; food consumption (effect in words) [2]: without a concomitant reduction in food consumption; hyperinsulinemia, hyperlipidemia, and glucose intolerance (effect in words) [2]: reduce hyperinsulinemia, hyperlipidemia, and glucose intolerance; locomotor stimulation and stereotyped behavior responses ([3]; after depletion of endogenous dopamine): blocked by depletion of endogenous dopamine; responsiveness in dopamine depleted animals given a D1 dopamine receptor agonist ([3]; dopamine depleted animals plus D1 agonist): restored
CCOC(=O)C(C)(C)Oc1ccc(Cl)cc1 [clofibrate] | – | – | – | side effects [4]: nephrotic syndromes, myalgia, nausea, and abdominal pain
CC[C@H](C)C(=O)O[C@H]1C[C@@H](C)C=C2C=C[C@H](C)[C@H](CC[C@@H]3C[C@@H](O)CC(=O)O3)[C@H]21 [lovastatin] | – | – | – | total cholesterol (effect in words) ([5]; in vivo): reduces total cholesterol; increase in HDL concentrations ([5]; lovastatin (MEVACOR)): 5-10%
COc1ccc2[nH]cc(C3=CCNCC3)c2c1 [RU] | – | significant decrease | significant decrease | –
Oc1cc2c(cc1O)C(c1ccccc1)CNCC2 (stereo not drawn) [SKF] | – | significant decrease | significant decrease | –
